# Laboratory results from patent US20050107316A1, “Agent for inhibiting development or progress of proliferative diseases and especially cancer diseases and pharmaceutical composition containing said agent” (priority 2002, published 2005).
# Key:
# MCF-7 cells = type: cell-based, human
# Protocol: (§1) Cancer cell lines HeLa S3 (cervix), MCF-7 (breast) and Saos-2 (osteosarcoma) were grown at 37° C. in 5% CO2 in Ham's F 12, RPMI 1640 and McCoy's 5a medium, respectively containing 10% FBS, 2 mM L-glutamine. To assay for growth inhibition, exponentially growing cells (0.3-2.5×10^4) were seeded into 24-well plates. On the following day cells were incubated with peptides at varying concentrations without serum for 3 h followed by addition of complete medium. On day 3, 6 and 8 cells were treated again and harvested on day 3, 6, 8 and 10 to determine cell numbers using a Hemacytometer. Cell viability was assessed by trypan blue staining. Each experiment was repeated at least three times.
# HeLa S3 cells [1] = test: Growth inhibition assay with peptides, HeLa S3; type: cell-based, human; conditions: HeLa S3, 5 μM
# Protocol: as §1
# [2] = tested on: primary epithelial cells (HMEC); test: Growth inhibition with peptides, primary epithelial cells; type: cell-based, human
# HeLa S3 cells [3] = test: DNA and tubulin staining of polo-box-treated cells; type: cell-based, human
# Protocol: (§2) For staining cells were grown in slide flasks and treated with peptides for 24 h. Then, cells were fixed in 4% paraformaldehyde for 30 min, permeabilized in 0.2% Triton X-100 for 20 min and stained with α-tubulin (Serotec/Biozol, Eching) 1:100, polyclonal rabbit PLK1 1:100, or monoclonal α-tubulin (Sigma) 1:100. Stained cells were analyzed with a confocal laser scan microscope (CLSM) or a fluorescence microscope.
# Saos-2 cells = test: Growth inhibition assay with peptides, Saos-2; type: cell-based, human; conditions: Saos-2, 5 μM
# Protocol: as §1
# MCF-7 and HeLa S3 cells = test: Annexin V apoptosis assay and DNA staining after peptide treatment; type: cell-based, human
# Protocol: Cells were seeded into 6-well plates, allowed to attach overnight, and then treated with different peptides at a concentration of 10 μM. Cells were trypsinized after 16 h and incubated with Annexin V according to the manufacturer's recommendations (Mo Bi Tech).
# HeLa S3 cells [4] = test: Cell cycle analysis and count of mitotic cells after peptide treatment, HeLa S3; type: cell-based, human
# Protocol: Cell cycle analysis was performed using a Cycle TEST™ PLUS DNA reagent kit (Becton Dickinson) according to the manufacturer's instructions. Briefly, cells were washed with PBS, treated with RNase A and stained with propidium iodide (PI). The analysis was performed using a Becton Dickinson FACScan flow cytometer. Using the MODFIT LT 2.0 software (Verity Software House, Topsham, Me.) for each individual sample 30,000 cells were analyzed.
# as §2
# PLK1 = test: In vitro kinase assay with PLK1 purified from Sf 9 cells; type: biochemical, human
# Protocol: PLK1 purified from Sf 9 cells was incubated with 0.5-1 μg of PLK1-specific substrates and 2 μCi of […] for 20 min at 37° C. in kinase buffer (20 mM HEPES pH 7.4, 150 mM KCl, 10 mM MgCl2, 1 mM EGTA, 0.5 mM DTT, 5 mM NaF, 0.1 mM Na3VO4 and 100 μM ATP).
substance,measurement,setting,value
H-WVSKWVDYSDKYGLGYQLCDRQIKIWFQNRRMKWKK-OH [Peptide P1],Concentration with general toxic effect,MCF-7 cells,above 20 μM
same,Concentrations that started to inhibit proliferation,MCF-7 cells; MCF-7,above 1 μM
same,Range of dose-dependent inhibition of proliferation,MCF-7 cells; MCF-7,1 to 10 µM
same,Inhibitory effect on cell proliferation,"MCF-7 cells; MCF-7, 5 μM",most prominent in MCF-7 cells
same,Growth behavior,"MCF-7 cells; MCF-7, 0.01 to 0.5 μM",did not affect the growth behavior
same,Inhibitory effect on cell proliferation,HeLa S3 cells [1],little inhibition
same,Inhibition of proliferation,[2],to a much lower extent than MCF-7 cells
same,Chromosomes,HeLa S3 cells [3],"misaligned, not properly segregated and partially condensed"
same,Inhibitory effect on cell proliferation,Saos-2 cells,intermediate effect
same,Apoptotic cells,"MCF-7 and HeLa S3 cells; 10 μM, 16 h annexin V and PI, DNA staining after 1 day",elevated percentage of apoptotic cells
same,Apoptotic peak,MCF-7 and HeLa S3 cells; time of treatment,24 h
same,Start of the inhibitory effect,MCF-7 and HeLa S3 cells; time of treatment,10 h
same,Increase of mitotic cells compared to control cells,"HeLa S3 cells [4]; HeLa S3, 24 h, 5 μM",3-4 fold
same,Percentage of mitotic cells,"HeLa S3 cells [4]; HeLa S3, 24 h, 5 μM",14.7%
same,Increase of cells in G2/M compared to control cells,"HeLa S3 cells [4]; HeLa S3, day 6, 5 μM",25-35%
same,Inhibitory effect on phosphorylation,"PLK1; 6.25 to 25.0 μM, wild-type compared with mutated form P2",at least two fold more inhibition
same,Phosphorylation of substrates by PLK1,"PLK1; 37° C., 20 min",decreased the phosphorylation of substrates clearly
same,Inhibitory effect on phosphorylation,PLK1; below 1.56 μM,still exhibited some effect
